Measurements published in US5866576A, “Epoxide-containing compounds” (Cell Therapeutics, Inc., priority 1997, dated 1999).

Columns and labels:
[1] = system: normal human bone marrow stromal cells (MSC); test: human bone marrow stromal cell (MSC) proliferation in response to PDGF BB and IL-1α; format: cell-based; conditions: Table III, PDGF BB 50 ng/ml and IL-1α 10 ng/ml
Method: This example illustrates the effects of inventive compounds nos. 1114, 1413, 1560, 1565, 1594, 2518, 2548R, 2548S and 3503 as effective inhibitors of normal human bone marrow stromal cells (MSC) proliferation in response to Platelet Derived Growth Factor BB (PDGF B) and IL-1α (50 and 10 ng/ml, respectively).
MSC were obtained and malintained in exponential growth, released from a growth plate with trypsin and plated into 96 well tissue culture plates in the presence of Fibroblast Growth Factor (FGFβ) for 48 hours. Growth media were removed and the cells were washed once with serum free media. The cells were then incubated 20-24 hours in serum free media.
After incubation, inventive compounds were added to the cells at the appropriate concentration and then the cells again incubated for 1 hour. PDGF B and IL-1α were added to the cells along with 3H-thymidine and the cells again incubated for an additional 24 hours.
After 24 hours of incubation, the cells were then harvested to assess incorporation of ^3 H-thymidine into DNA (proliferation). From each harvested cell culture, an IC-50 for each inventive compound tested was determined. Therefore, a lower reported IC-50 value is indicatilve of greater activity of the invention compounds in inhibiting MSC proliferation. Table III illustrates IC-50 values (in μM) for invention compounds inhibiting MSC proliferation at very low concentrations of compound.

Balb/3T3 cells = test: PDGF-stimulated Balb/3T3 cell proliferation; format: cell-based; conditions: FIGS. 8A (1409), 8B (1560); PDGF/BB
Method: Balb/3T3 cells respond vigorously to PDGF stimulation, and are useful in vitro models for further study of PDGF-induced proliferation. Disregulated PDGF-proliferative response has been linked to a variety of diseases, including, e.g., restenosis, atherosclerosis, fibrosis, and tumor cell angiogenesis.
Balb/3T3 cells were maintained in exponential growth. The cells were removed from a flask with EDTA and plated into 96 well plates at 3000 cells/well. After 48 hours, the media was removed, the cells washed once with PBS and serum free media and the cultures allowed to rest for a 24 hour period. Inventive compounds were added to the wells containing media and Balb/3T3 cells one hour prior to incubation with PDGF/BB, added at constant 10 μM concentrations along with 1 μ Ci 3-H-thymidine dye. Cells were subsequently incubated for 18-24 hours, harvested, and incorporated thymidine assessed on a Packard Topcount to determine degree of cell proliferation. Data obtained in this assay was used to determine experimental 50% inhibition concentrations for the inventive compounds tested.

murine splenocytes = test: murine splenocyte proliferation co-stimulated by anti-mu and IL-4 (FIG. 11); format: cell-based; conditions: Mus musculus, anti-mu / IL-4 12.5 ng/ml
Method: This example illustrates inhibitive effects of compounds nos. 1439, 1553S, 1560 and 1565 on murine splenocyte proliferation co-stimulated by anti-mu ([…]) and interleukin-4 (IL-4, 12.5 ng/ml). This in vitro assay, described above, is indicative of immune-suppressive/autoimmune treatment assay emphasizing humoral or B cell immune response. This assays are a predictive model for treatment or prevention of autoimmune diseases, such as diabetes, lupus, arthritis, and the like. The assay measures immunosuppressive activity of a drug at the B cell level. Spleens from adult mice contain immature B cells that express surface IgM. Cross-linking the surface IgM with an anti-mu antibody results in B cell proliferation. Additionally, this activation results in an increased expression of interleukin-4 receptors(IL-4R) on the surface of such cells. IL-4 acts as a growth factor for B cells and will increase the amount of proliferation induced by anti-mu.
A mixture of anti-mu and murine IL-4 is added to murine splenocytes to cause their proliferation. Mice spleens are obtained from adult mice and a single cell suspension is prepared in RPMI 1640 medium supplemented with 10% FCS. Cells (200,000) are plated into flat-bottomed wells and pre-incubated for 1-2 hours with various concentrations of inventive compound or PBS if it is a control. A mixture of anti-mu and murine is added to the wells at a final concentration of 5 μg/ml anti-mu and 12.5 ng/ml IL-4 and plates are incubated for three days. Proliferation is determined on the third day with a pulse of tritiated thymidine. The IC50 concentration of a particular drug is the concentration of drug that results in a 50% inhibition of the proliferation obtained from the positive control.

lymph node cells = test: ovalbumin-induced proliferation in murine lymph cells (FIG. 13); format: cell-based, Balb/C mice; conditions: Mus musculus, OVA 200 μg/ml
From the text: This example illustrates effects of the inventive compounds on ovalbumin-induced proliferation in murine lymph cells. Lymphnode cells contain a mixture of lymphoid cells: T-cells, B-cells and macrophages. Although proliferating cells in this assay are T-cells, the response obtained depends on type of antigen-presenting cell (e.g., macrophages) as well as elaboration of various immunoregulatory cytokines. Thus, this assay serves as a good model for T-cell mediated responses and as a valuable screening tool in identifying compounds useful in immunosuppressive therapeutic applications.
Murine T-cells proliferate in vitro in response to a soluble protein antigen if first primed with a corresponding antigen in vivo. This in vivo priming usually involves emulsifying the antigen in complete Freunds adjuvant and injecting this preparation into an appropriate site on a mouse. In this assay the antigen employed was chicken ovalbumin(OVA). Following emulsification in Freund's complete adjuvant, 50 μg of OVA were injected into both hind footpads of adult Balb/C mice. Fourteen days later the draining lymph nodes(popliteal) were removed and a single cell suspension was prepared in RPMI-1640 (10%FCS) medium. Two hundred thousand lymph node cells are then plated into wells of flat-bottom 96-well plates. Inventive compouds nos. 1410, 1553 (racemic), 1553(S), 1560 and 1565 were added to appropriate wells at various concentrations. OVA, at a final concentration of 200 μg/ml, was added to appropriate wells. Positive and negative controls were established on each plate, all assay variables being set up in quadruplicate.
The plates were incubated in a humidified, 5% CO2 incubator for 5 days. On the fifth day, 1 μCi of tritiated thymidine was added to each well and the plates were incubated for an additional 4 hours. The plates were harvested and the incorporation of 3H-TdR was determined in a liquid scintillation counter. The CPM data was then used to calculate experimental IC50 values for the compounds tested. Again, IC50 is defined as that concentration of compound resulting in 50% inhibition of 3H-TdR incorporation of the positive control.

## Cn1cnc2c1c(=O)n(CCCCCCCC1CO1)c(=O)n2C (stereo not shown) [Compound 1560, 1-(8,9-Oxidononyl)-3,7-dimethylxanthine]
[1]
  IC50: 6.6 µM
Balb/3T3 cells
  inhibition of Balb/3T3 proliferation: inhibit Balb/3T3 proliferation
Murine splenocytes
  IC50: 29 µM
Lymph node cells
  IC50: 34 µM
